Measured values from paper PMC2996141 (Journal of chemical information and modeling, 2010).
“Also recorded” adds a separate entry of the source. Read-outs that look alike come from different tables or passages of the source.

What was measured:
cell growth = settings: cited from earlier work
[1] = target: T1, tubulin polymer (microtubules) (Bos taurus, UniProt Q6B856); test: Binding of [^3H]peloruside A to preformed tubulin polymer, Scatchard analysis; parameters: species or system Bovine
[2] = tested on: microtubules (taxoid site); test: Inhibition of [^3H]paclitaxel binding to microtubules; parameters: species or system Bovine; settings: for % inhibition ± SD, radiolabeled ligand [^3H]paclitaxel: 2.0 µM tubulin as microtubules, radiolabeled ligand 4.0 µM, inhibitor 20 µM
[3] = target: microtubules (laulimalide/peloruside A site) (Bos taurus, UniProt Q6B856); test: Inhibition of [^3H]peloruside A binding to microtubules; parameters: species or system Bovine; settings: for inhibition at 20 µM: read-out: % inhibition ± SD, radiolabeled ligand [^3H]peloruside A; for % inhibition ± SD, radiolabeled ligand [^3H]peloruside A: 2.0 µM tubulin as microtubules, radiolabeled ligand 4.0 µM, inhibitor 20 µM; for type of inhibition of [^3H]peloruside A binding: Hanes analysis; for Ki: read-out: apparent Ki, inhibition of [^3H]peloruside A binding, Dixon analysis, competitive
Sequence of microtubules (laulimalide/peloruside A site) (Q6B856 whole entry): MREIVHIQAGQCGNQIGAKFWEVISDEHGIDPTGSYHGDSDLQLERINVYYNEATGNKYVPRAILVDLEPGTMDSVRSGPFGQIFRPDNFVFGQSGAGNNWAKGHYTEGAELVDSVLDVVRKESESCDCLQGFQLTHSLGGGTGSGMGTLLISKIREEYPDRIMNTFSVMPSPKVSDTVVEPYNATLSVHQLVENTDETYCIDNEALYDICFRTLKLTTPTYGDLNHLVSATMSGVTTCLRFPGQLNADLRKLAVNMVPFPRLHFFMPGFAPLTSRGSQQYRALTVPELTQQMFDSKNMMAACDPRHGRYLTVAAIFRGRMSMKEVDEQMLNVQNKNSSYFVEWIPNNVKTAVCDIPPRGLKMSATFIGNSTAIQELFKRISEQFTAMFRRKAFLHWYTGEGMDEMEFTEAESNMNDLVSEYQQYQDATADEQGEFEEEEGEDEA
Sequence of microtubules (laulimalide/peloruside A site) (P81947 whole entry partner): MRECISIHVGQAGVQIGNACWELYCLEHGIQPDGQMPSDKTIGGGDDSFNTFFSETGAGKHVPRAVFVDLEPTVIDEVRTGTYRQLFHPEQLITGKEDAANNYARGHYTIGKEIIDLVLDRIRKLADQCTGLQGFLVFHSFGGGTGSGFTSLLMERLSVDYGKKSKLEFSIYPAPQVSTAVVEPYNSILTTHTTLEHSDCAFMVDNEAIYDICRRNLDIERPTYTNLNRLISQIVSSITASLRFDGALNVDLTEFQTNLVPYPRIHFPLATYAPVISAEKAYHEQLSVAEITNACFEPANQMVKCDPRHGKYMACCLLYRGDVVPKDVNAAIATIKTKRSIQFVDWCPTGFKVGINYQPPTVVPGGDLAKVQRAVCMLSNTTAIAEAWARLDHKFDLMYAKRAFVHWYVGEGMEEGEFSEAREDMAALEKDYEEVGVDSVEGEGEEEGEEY

[4] = target: T1, tubulin polymer (microtubules); test: Binding of [^3H]paclitaxel to preformed tubulin polymer, Scatchard analysis; parameters: species or system Bovine

T1 sequence (Q6B856 whole entry): as the sequence (Q6B856 whole entry) above
T1 sequence (P81947 whole entry partner): as the sequence (P81947 whole entry partner) above

Molecule | % inhibition ± SD, radiolabeled ligand [^3H]paclitaxel [2] [%] | ability to inhibit [^3H]paclitaxel binding [2] | ability to inhibit [^3H]peloruside A binding (words) [3] | inhibition at 20 µM [3] [%] | other results
C=C1C[C@H](C)C[C@@H]2CC=C[C@@H](C/C=C\C(=O)O[C@@H](/C=C/[C@@H]3CC(C)=CCO3)[C@@H](O)C[C@@H]3O[C@H]3[C@@H](O)C1)O2 [compound 13, neolaulimalide] |  |  |  |  | activity in cells and with tubulin relative to laulimalide (cell growth; ref Gollner et al. 41): equivalent to that of laulimalide
CC[C@@H](/C=C(/C)[C@H]1C[C@H](OC)C[C@@H](O)C(C)(C)[C@]2(O)O[C@H](C[C@H](OC)[C@@H](O)C(=O)O1)C[C@H](OC)[C@@H]2O)CO [peloruside A] | 5.1 ± 6 |  |  |  | number of binding sites per tubulin αβ-dimer in microtubules [1]: one binding site
C/C(=C\c1csc(C)n1)[C@@H]1C[C@@H]2O[C@]2(C)CCC[C@H](C)[C@H](O)[C@@H](C)C(=O)C(C)(C)[C@@H](O)CC(=O)O1 [epothilone B] | 79 ± 5 | strong inhibitors | essentially no ability to inhibit; also recorded: little activity | 2.2 ± 5 | 
C=C1C[C@H](C)C[C@@H]2CC=C[C@@H](C/C=C\C(=O)O[C@H]([C@@H](O)/C=C/[C@@H]3CC(C)=CCO3)C[C@@H]3O[C@H]3[C@@H](O)C1)O2 [laulimalide] | 1.7 ± 5 | essentially inactive | inhibitory; also recorded: potent competitive inhibitor |  | % inhibition ± SD, radiolabeled ligand [^3H]peloruside A [3]: 90 ± 0.1%; type of inhibition of [^3H]peloruside A binding [3]: competitive inhibitor; Ki [3]: 250 nM
C=C/C=C\[C@H](C)[C@H](OC(N)=O)[C@@H](C)[C@H](O)[C@@H](C)C/C(C)=C\[C@H](C)[C@@H](O)[C@@H](C)/C=C\[C@@H](O)C[C@@H]1OC(=O)[C@H](C)[C@@H](O)[C@H]1C [discodermolide] | 87 ± 2 | strong inhibitors | essentially no ability to inhibit; also recorded: little activity | 5 ± 2 | 
CC(=O)O[C@H]1C(=O)[C@@]2(C)[C@H]([C@H](OC(=O)c3ccccc3)[C@]3(O)C[C@H](OC(=O)[C@H](O)[C@@H](NC(=O)c4ccccc4)c4ccccc4)C(C)=C1C3(C)C)[C@]1(OC(C)=O)CO[C@@H]1C[C@@H]2O [paclitaxel] |  |  | little activity | 6.8 ± 0.5 | Kd [4]: 240 nM; ability to inhibit [^3H]peloruside A binding (words) ([3]; listed as Paclitaxel): essentially no ability to inhibit
CC[C@H](/C=C(/C)[C@@H]1C[C@@H](OC)C[C@H](O)C(C)(C)[C@@]2(O)O[C@@H](C[C@@H](O)[C@H](O)C(=O)O1)C[C@@H](OC)[C@H]2O)CO [peloruside B] |  |  |  |  | cytotoxicity relative to peloruside A (cell growth): about three-fold less cytotoxic
(11-R)-peloruside A | 0 ± 8 | essentially inactive | inhibitory |  | % inhibition ± SD, radiolabeled ligand [^3H]peloruside A [3]: 49 ± 1%; type of inhibition of [^3H]peloruside A binding [3]: competitive inhibitors; Ki [3]: 9300 nM
